# Laboratory results reported in US6653504B1, “Non-hygroscopic salts of active ingredients having therapeutical and/or nutritional activities and orally administrable compositions containing same” (Sigma-Tau Industrie Farmaceutiche Riunite S.p.A., priority 1999, dated 2003).
# Structures can show the parent of a compound that is named as a salt.
# Experiment: Hygroscopicity: increase in weight and appearance after exposure to humidity
# Format: physicochemical
# Details: exposure to 70±5% relative humidity, at 25° C. for 24 hours
Molecule,Appearance,Increase in weight (%)
CC(=O)O[C@H](CC(=O)O)C[N+](C)(C)C.[Cl-] [Acetyl-L-carnitine chloride],clumped mass,8
CC(=O)O[C@H](CC(=O)[O-])C[N+](C)(C)C [Acetyl-L-carnitine inner salt],deliquescent,19
C[N+](C)(C)C[C@H](O)CC(=O)[O-] [L-carnitine inner salt],deliquescent,23

# Experiment: not given
# Details: background statement, no conditions given; cited from earlier work
row,Molecule,Hygroscopicity of known salts
1,C[N+](C)(C)C[C@H](O)CC(=O)O.C[N+](C)(C)C[C@H](O)CC(=O)O.O=C([O-])C(O)C(O)C(=O)[O-] [L(−)-carnitine tartrate],non-hygroscopic
2,CC(=O)O[C@H](CC(=O)O)C[N+](C)(C)C.O=C([O-])/C=C/C(=O)O [acetyl L(−)-carnitine acid fumarate],strongly hygroscopic
3,L(−)-carnitine acid fumarate,non-hygroscopic
